ChEMBL document CHEMBL1201862, “PubChem BioAssay data set” (2004)
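96-well plates; 48 h exposure; 5 concentrations. Endpoints by linear interpolation between flanking doses. Not reached: highest tested concentration assigned. GI50 = concentration required for 50% inhibition of growth.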 Active and inactive are the calls of the source. No stated cut-off is given here; in the data, active = GI50 up to about 1.1 µM and inactive = higher.

Key:
Experiment in all cases: NCI anticancer screen, dose series, 48 h
786-0 = tested on: 786-0
A549 = tested on: A549
CCRF-CEM = tested on: CCRF-CEM
EKVX = tested on: EKVX
HCT-116 = tested on: HCT-116
M14 = tested on: M14
Malme-3M = tested on: Malme-3M
NCI-H522 = tested on: NCI-H522
RXF 393 = tested on: RXF 393
SF-268 = tested on: SF-268
SF-539 = tested on: SF-539
SK-MEL-28 = tested on: SK-MEL-28
SK-MEL-2 = tested on: SK-MEL-2
SK-MEL-5 = tested on: SK-MEL-5
SK-OV-3 = tested on: SK-OV-3
SNB-19 = tested on: SNB-19
SW-620 = tested on: SW-620
TK-10 = tested on: TK-10
U-251 = tested on: U-251

| Structure (SMILES) | GI50 (786-0) | GI50 (A549) | GI50 (CCRF-CEM) | GI50 (EKVX) | GI50 (HCT-116) | GI50 (M14) | GI50 (Malme-3M) | GI50 (NCI-H522) | GI50 (RXF 393) | GI50 (SF-268) | GI50 (SF-539) | GI50 (SK-MEL-28) | GI50 (SK-MEL-2) | GI50 (SK-MEL-5) | GI50 (SK-OV-3) | GI50 (SNB-19) | GI50 (SW-620) | GI50 (TK-10) | GI50 (U-251) |
| --- | --- | --- | --- | --- | --- | --- | --- | --- | --- | --- | --- | --- | --- | --- | --- | --- | --- | --- | --- |
| NC1(P(=O)(O)O)CCCCC1 | > 100 µM (inactive) | > 100 µM (inactive) | > 100 µM (inactive) | > 100 µM (inactive) | > 100 µM (inactive) | > 100 µM (inactive) | > 100 µM (inactive) | > 100 µM (inactive) | > 100 µM (inactive) | > 100 µM (inactive) | > 100 µM (inactive) | > 100 µM (inactive) | > 100 µM (inactive) | > 100 µM (inactive) | > 100 µM (inactive) | > 100 µM (inactive) | > 100 µM (inactive) | > 100 µM (inactive) | > 100 µM (inactive) |
| O=C(Cn1ccc(=O)[nH]c1=O)Nc1ccc(C(=O)O)c(O)c1 | > 100 µM (inactive) | > 100 µM (inactive) | > 100 µM (inactive) | > 100 µM (inactive) | > 100 µM (inactive) | > 100 µM (inactive) | > 100 µM (inactive) | > 100 µM (inactive) | > 100 µM (inactive) | > 100 µM (inactive) | – | > 100 µM (inactive) | > 100 µM (inactive) | > 100 µM (inactive) | < 0.01 µM (active) | > 100 µM (inactive) | > 100 µM (inactive) | > 100 µM (inactive) | > 100 µM (inactive) |
| Cc1nn(-c2ccccc2)c2c1CC(=O)Nc1ccccc1-2 | 0.951 µM (active) | 1.61 µM (inactive) | 0.44 µM (active) | 9.66 µM (inactive) | 0.409 µM (active) | 0.553 µM (active) | – | 0.509 µM (active) | 0.313 µM (active) | 1.63 µM (inactive) | 0.607 µM (active) | 0.839 µM (active) | 1.65 µM (inactive) | 0.379 µM (active) | 1.81 µM (inactive) | 2.55 µM (inactive) | 0.374 µM (active) | 0.566 µM (active) | 0.743 µM (active) |
| CSc1ncc2c(n1)-c1ccccc1OC2NC1CC1 (centres undefined) | > 100 µM (inactive) | > 100 µM (inactive) | 31.4 µM (inactive) | 51.2 µM (inactive) | 64.1 µM (inactive) | > 100 µM (inactive) | – | 24.8 µM (inactive) | > 100 µM (inactive) | 92.7 µM (inactive) | > 100 µM (inactive) | – | > 100 µM (inactive) | 78.3 µM (inactive) | > 100 µM (inactive) | > 100 µM (inactive) | > 100 µM (inactive) | 32.7 µM (inactive) | 76.2 µM (inactive) |
| CC1(C)OC2COC(c3n[nH]c4c(=O)[nH]c(=O)[nH]c34)C2O1 (centres undefined) | > 100 µM (inactive) | > 100 µM (inactive) | – | > 100 µM (inactive) | > 100 µM (inactive) | > 100 µM (inactive) | > 100 µM (inactive) | > 100 µM (inactive) | > 100 µM (inactive) | > 100 µM (inactive) | > 100 µM (inactive) | > 100 µM (inactive) | > 100 µM (inactive) | > 100 µM (inactive) | > 100 µM (inactive) | > 100 µM (inactive) | > 100 µM (inactive) | > 100 µM (inactive) | > 100 µM (inactive) |
| CCCCCCc1nn2c(-c3ccc(C)cc3)nnc2s1 | > 100 µM (inactive) | > 100 µM (inactive) | – | 76.9 µM (inactive) | 49.2 µM (inactive) | > 100 µM (inactive) | – | 67.3 µM (inactive) | 77.8 µM (inactive) | > 100 µM (inactive) | 81.8 µM (inactive) | > 100 µM (inactive) | > 100 µM (inactive) | 77.1 µM (inactive) | > 100 µM (inactive) | > 100 µM (inactive) | > 100 µM (inactive) | > 100 µM (inactive) | 32.6 µM (inactive) |
| S=C(c1c[nH]c2ccccc12)N1CCN(Cc2ccccc2)CC1 | 15.7 µM (inactive) | – | 27.2 µM (inactive) | 18 µM (inactive) | 15.7 µM (inactive) | 14 µM (inactive) | 19.5 µM (inactive) | – | 16.1 µM (inactive) | 19.5 µM (inactive) | 18.6 µM (inactive) | 17.3 µM (inactive) | 18.9 µM (inactive) | 12.1 µM (inactive) | 20.7 µM (inactive) | 14.9 µM (inactive) | 17.8 µM (inactive) | 26.4 µM (inactive) | 19.5 µM (inactive) |
| CCc1ccc(Nc2cc(=O)[nH]c(SCc3ccccc3)n2)cc1 | 43.6 µM (inactive) | > 100 µM (inactive) | > 100 µM (inactive) | 57.7 µM (inactive) | 80.7 µM (inactive) | > 100 µM (inactive) | > 100 µM (inactive) | > 100 µM (inactive) | > 100 µM (inactive) | 73.1 µM (inactive) | 52 µM (inactive) | – | > 100 µM (inactive) | 78 µM (inactive) | > 100 µM (inactive) | 38.2 µM (inactive) | > 100 µM (inactive) | > 100 µM (inactive) | – |
| COC(=O)c1cc2c3c(c(C(C)=O)c(OC)c2[nH]1)NCC3 | > 50 µM (inactive) | – | > 50 µM (inactive) | > 50 µM (inactive) | > 50 µM (inactive) | > 50 µM (inactive) | > 50 µM (inactive) | – | > 50 µM (inactive) | > 50 µM (inactive) | > 50 µM (inactive) | – | > 50 µM (inactive) | > 50 µM (inactive) | > 50 µM (inactive) | > 50 µM (inactive) | > 50 µM (inactive) | > 50 µM (inactive) | > 50 µM (inactive) |
| COc1ccc(/C=C/c2onc3c(=O)n(C)nc(-c4ccccc4)c23)cc1 | > 100 µM (inactive) | > 100 µM (inactive) | > 100 µM (inactive) | > 100 µM (inactive) | > 100 µM (inactive) | > 100 µM (inactive) | – | 77.6 µM (inactive) | > 100 µM (inactive) | > 100 µM (inactive) | 48.9 µM (inactive) | > 100 µM (inactive) | – | > 100 µM (inactive) | > 100 µM (inactive) | > 100 µM (inactive) | > 100 µM (inactive) | > 100 µM (inactive) | > 100 µM (inactive) |
| Cc1ccc(C2CC(c3ccco3)=NN2c2ccccc2)o1 (centres undefined) | > 100 µM (inactive) | > 100 µM (inactive) | > 100 µM (inactive) | > 100 µM (inactive) | > 100 µM (inactive) | > 100 µM (inactive) | > 100 µM (inactive) | > 100 µM (inactive) | > 100 µM (inactive) | > 100 µM (inactive) | > 100 µM (inactive) | > 100 µM (inactive) | > 100 µM (inactive) | > 100 µM (inactive) | – | > 100 µM (inactive) | > 100 µM (inactive) | > 100 µM (inactive) | > 100 µM (inactive) |
| Cc1cn(C2CC(O)C(COC(N)=O)O2)c(=O)[nH]c1=O (centres undefined) | > 100 µM (inactive) | > 100 µM (inactive) | > 100 µM (inactive) | > 100 µM (inactive) | > 100 µM (inactive) | > 100 µM (inactive) | > 100 µM (inactive) | > 100 µM (inactive) | > 100 µM (inactive) | > 100 µM (inactive) | > 100 µM (inactive) | > 100 µM (inactive) | > 100 µM (inactive) | > 100 µM (inactive) | > 100 µM (inactive) | > 100 µM (inactive) | > 100 µM (inactive) | > 100 µM (inactive) | > 100 µM (inactive) |
| C=C(C)CC1(O[Si](C)(C)C)C(=O)C(OCC)=C1OCC (centres undefined) | > 100 µM (inactive) | > 100 µM (inactive) | > 100 µM (inactive) | > 100 µM (inactive) | > 100 µM (inactive) | > 100 µM (inactive) | > 100 µM (inactive) | > 100 µM (inactive) | – | > 100 µM (inactive) | > 100 µM (inactive) | > 100 µM (inactive) | > 100 µM (inactive) | > 100 µM (inactive) | > 100 µM (inactive) | > 100 µM (inactive) | > 100 µM (inactive) | > 100 µM (inactive) | > 100 µM (inactive) |
| COc1c(C(C)(C)C)cc(CC2C(=O)C=CC2=O)cc1C(C)(C)C | 2.86 µM (inactive) | 24.3 µM (inactive) | 2.29 µM (inactive) | 17.7 µM (inactive) | 3.13 µM (inactive) | 17.9 µM (inactive) | 17.2 µM (inactive) | 2.25 µM (inactive) | 14.8 µM (inactive) | 19.1 µM (inactive) | 11.1 µM (inactive) | 16.6 µM (inactive) | 19 µM (inactive) | 17.3 µM (inactive) | 25.1 µM (inactive) | 19.1 µM (inactive) | 6.92 µM (inactive) | 5.92 µM (inactive) | 18.2 µM (inactive) |
| Cc1nn(-c2ccccc2)c2c1C(c1ccc(Cl)cc1)NC(=S)N2 (centres undefined) | 15.6 µM (inactive) | 24.6 µM (inactive) | 20.9 µM (inactive) | 25.8 µM (inactive) | 20 µM (inactive) | 21.9 µM (inactive) | 28.2 µM (inactive) | 14 µM (inactive) | 15.7 µM (inactive) | 25.8 µM (inactive) | 18.5 µM (inactive) | – | 17.5 µM (inactive) | 20.3 µM (inactive) | 22.9 µM (inactive) | 28.6 µM (inactive) | 23 µM (inactive) | 18.7 µM (inactive) | 19.5 µM (inactive) |
| CC(C)(C)OC(=O)N1C(c2cccnc2)=CC[C@H]2C3CC=C(c4cccnc4)[C@@]3(C)CC[C@@H]21 (some centres undefined) | 4.86 µM (inactive) | 3.37 µM (inactive) | 3.99 µM (inactive) | 2.11 µM (inactive) | 4.04 µM (inactive) | 4.75 µM (inactive) | 3.44 µM (inactive) | 2.92 µM (inactive) | 3.32 µM (inactive) | 2.9 µM (inactive) | 3.82 µM (inactive) | – | 2.95 µM (inactive) | 2.07 µM (inactive) | 4.54 µM (inactive) | 4.83 µM (inactive) | 3.83 µM (inactive) | 4.22 µM (inactive) | 3.36 µM (inactive) |
